Paper PMC11201866, “Antiproliferative effect of indeno[1,2-d]thiazolo[3,2-a]pyrimidine analogues on IL-6 mediated STAT3 and role of the apoptotic pathway in albino Wistar rats of ethyl carbamate-induced lung carcinoma: In-silico, In-vitro, and In-vivo study” (Cancer Cell International, 2024)
Where two headings read alike, the source gives them in different places.

What was measured:
[1] = test system: ethyl-carbamate (EC)- induced LC; test: In-vivo antineoplastic study, EC-induced lung carcinoma (weight, lipid profile, oxidative markers, histopathology, SEM); design: species or system albino Wistar rats; conditions: EC-induced LC rats; for Histopathological analysis of lung tissue (H&E): 10 mg/kg for 15 days; for Weight variation (change in body weight): 10 mg/kg for 15 days (9B, 12B p.o.; 5-FU i.p.); for Serum lipid profile (TC, TG, LDL, VLDL, HDL) / Oxidative changes (SOD, GSH, ProC, TBARs): 10 mg/kg p.o. for 15 days; for Oxidative changes (SOD, GSH, ProC, TBARs): lung tissue homogenate
Experimental: (§1) Six-week-old experimental male albino Wistar rats (100–120 g) were procured from the animal house facility of Babu Banarasi Das Northern India Institute of Technology Lucknow and approved by the Institutional Animal Ethical Committee (CPCSEA No. 809/PO/Re/S/03/CPCSEA) with approval no. BBDNIIT/IAEC/APR/2022/06. The animal welfare protocol and experiments were performed as per the CPCSEA guidelines for laboratory animals and ethics, Department of Animal Welfare, Government of India. They were randomly distributed into five groups of eight animals each. The experimental rats were acclimated under standard research laboratory conditions with free access to standard rat chow and water ad libitum. Group 1 (NC, normal control group): 0.25% CMC (2 mL/kg, p. o.), Group 2 (CC, carcinogen control/EC-exposed group): EC (0.375 mg/kg, four i.p. injections within a gap of three weeks between each dose over twelve weeks period), Group 3 (PC, positive control group): EC + 5-FU (10 mg/kg, i.p. for 15 days after EC induced LC), Group 4 (9B): EC + Compound 9B (10 mg/kg, p.o. for 15 days after EC induced LC), and Group 5 (12B): EC + Compound 12B (10 mg/kg, p.o. for 15 days after the induction of LC). At the end of the treatment, the animals were euthanized by cervical decapitation after anesthesia using a combination of diazepam and ketamine hydrochloride (5 mg/kg, and 100 mg/kg, i.m. respectively). The lung was excised immediately, rinsed in ice-cold saline, and stored at -80 °C for further study. Serum was collected and stored for further analysis.
Change in body weight (gm) was measured on the initial and final day of the experiment, and percent (%) weight gain/loss was calculated.
Serum total cholesterol (TC), triglycerides (TG), and high-density lipoprotein (HDL) levels were measured by using lipid profile kits (Agappe Diagnostic Ltd., Kerala, India). In brief, the assay was performed according to the manufacturer’s instructions. Low-density lipoprotein (LDL) and very-low-density lipoprotein (VLDL) levels were estimated and calculated using Friedewald’s formula [24].
Biochemical parameters such as protein carbonyl (PC), superoxide dismutase (SOD), glutathione (GSH), and thiobarbituric acid reactive substances (TBARs) were estimated in 10% lung tissue homogenate using our previously standardized laboratory protocols.
Histopathological studies were conducted to determine intracellular changes in lung tissue. Tissue samples were stained with H&E (haemotoxyline and eosin) using a methodology established previously at our laboratory for histological analysis and observed under an optical microscope (Steindroff N-120, 40X).
Lung tissue samples of 2–4 mm thickness were sectioned, and the samples were prepared by fixation, washing, post-fixation, and dehydration according to the standardized procedures of our laboratory. Finally, the samples were mounted on aluminium stubs with adhesive tape and examined for morphological changes using SEM (JEOL JSM-6490LV).

[2] = Pharmacokinetic study in rat plasma using HPLC; format: in vivo, albino Wistar rats; conditions: 10 mg/kg p.o.; for AUC(0-inf) / Cmax / MRT / Tmax / half-life: Wistar, po; for AUC(0-inf) / Cmax / MRT / Tmax / half-life / AUMC: rat plasma
Experimental: 9B and 12B compounds were orally administered at 10 mg/kg (p.o. dose obtained from acute toxicity studies) to rats, and blood was collected from the latetal tail vein at 0.083, 0.25, 0.5, 1, 2, 4, 8, 12, 16, 24, and 48 h. After collection, blood was centrifuged and plasma was separated, which was kept at -20 °C for further HPLC determination. Chromatographic separations were performed using a Shimadzu Prominence-I LC-2030 Plus equipped with HPLC and a photodiode array (PDA) detector. The mobile phase consisted of a gradient elution of 2:8, water: methanol, and a continuous flow rate of 1 mL/min in an RP-C18 column (5.0 µ particle sizes, 4.6 mm internal diameter, and 250 mm length) with different λmax of 310 and 320 nm, respectively, at 40 °C throughout the experiment. The column was washed using an elution solvent (water: methanol = 50:50) after each run, and the final output was analyzed using WinNonlin version 1.5.3 software.

[3] = test system: IL-2, IL-6, IL-10, and IL-1β; test: Cytokine estimation (ELISA) in EC-induced LC rats; format: in vivo, albino Wistar rats; conditions: 10 mg/kg p.o. for 15 days, vs CC group
Experimental: as §1, with “The lung was excised immediately, rinsed in ice-cold saline, and stored at -80 °C for further study. Serum was collected and stored for further analysis.” left out

albino Wistar rats = test: Acute toxicity study (OECD 423); format: in vivo; conditions: oral, 15 days, 5, 10, and 15 mg/kg; for Toxic effect: histology of lung, liver, kidney
Experimental: It is necessary to investigate the safety and efficacy of the synthesized compounds in vivo, which was performed as per the guidelines of the Organization for Economic Cooperation and Development guidelines 423 (OECD 423). The synthesized compounds were orally administered at doses of 5, 10, and 15 mg/kg body weight to albino Wistar rats for 15 days (n = 5), and the animals were observed every day for any toxic signs at various doses. Morphological and oxidative stress parameters were used to determine dose-related toxicity.

[4] = test system: Human Lung Cancer Cell Line A-549; test: In-vitro cell cytotoxicity (SRB) assay; format: cell-based
Experimental: To determine the cytotoxicity potential of the synthesized compounds. All samples were sent to the ACTREC, Tata Memorial Centre, Mumbai, India. They followed the standard protocol for sample analysis of the synthesized compounds. Adriamycin (ADR) was selected as a standard at 10, 20, 40, and 80 µg/mL to screen for indeno [1, 2-d] thiazolo [3,2-a] pyrimidine analogues. GI50 growth inhibition of 50% was calculated using the [(Ti − Tz)/(C − Tz)] ×100% formula, where C, controlled growth; Tz, time zero growth; and Ti, test growth at four concentration levels in the presence of the drug.
LC50 = Concentration of drug causing 50% cell kill
TGI = Concentration of drug causing total inhibition of cell growth
GI50 = Concentration of drug causing 50% inhibition of cell growth

[5] = test system: IL-6, STAT-3, Bax, Bcl-2, Cyt-C, Caspase-9, and Caspase-3; test: Western blot analysis of lung samples of EC-induced LC rats; format: in vivo, albino Wistar rats; conditions: 10 mg/kg p.o. for 15 days; for Expression of IL-6, STAT-3, and Bcl-2 / Expression of caspases (Caspase-3 and Caspase-9): vs CC group
Experimental: as §1
Protein expression levels of IL-6 (pro-inflammatory), STAT-3 (pro-inflammatory), Bax (pro-apoptotic), Bcl-2 (anti-apoptotic), Cyt-C (pro-apoptotic), Caspase-9, and Caspase-3 (pro-apoptotic/executor caspase) were assessed by immunoblotting. Proteins were electrophoresed on sodium dodecyl sulphate polyacrylamide gel (SDS-PAGE) and probed to detect molecules of interest in the mixture. The membrane was developed with enhanced chemiluminescence ECL, and images were obtained using Chemidoc XRS+ (Bio-rad).

[6] = Homo sapiens, A549 cell line, unit inferred, read-out: GI50 value

SMILES	Histopathological analysis of lung tissue (H&E) [1]	Weight variation (change in body weight) [1]	AUC(0-inf) [2]	Cmax [2]	MRT [2]	Tmax [2]	half-life [2]	AUMC [2]	Levels of cytokine IL-1β, IL-2, IL-6, and IL-10 [3]	Serum lipid profile (TC, TG, LDL, VLDL, HDL) [1]	Oxidative changes (SOD, GSH, ProC, TBARs) [1]	Antioxidant markers SOD, CAT, GSH, and TBARs values (albino Wistar rats)	Toxic effect (albino Wistar rats)	GI50 [4, 6]	Expression of IL-6, STAT-3, and Bcl-2 [5]	Expression of caspases (Caspase-3 and Caspase-9) [5]	also measured
O=c1[nH]cc(F)c(=O)[nH]1 [Compound 5-FU, 5-Fluorouracil, reference compound]	histopathological recovery of lung tissue architectures	7.21 ± 1.75 gm	–	–	–	–	–	–	–	–	–	–	–	–	–	–	–
Clc1ccc(C2C3=C(N=C4SC=CN42)c2ccccc2C3)cc1 (stereo not drawn) [Compound 12B, 5-(4-chlorophenyl)-5,6-dihydroindeno[1,2-d]thiazolo[3,2-a]pyrimidine]	histopathological recovery of lung tissue architectures	17.52 ± 1.33 gm	436 ± 8.59 µg·h/mL	40200 ± 2060 ng/mL	10.4 ± 1.08 h	4 h	11.5 h	4557.60 µg.h^2/ mL	significantly decreased	restored the alteration of the lipid profile	restoring the altered levels of SOD, GSH, ProC, and TBARs	no change	no toxic effect	< 10 µg/mL	decreased	increased	Biological availability (in words) ([2]; rat, compared with 9B): good biological availability as compared to 9B; Expression of Bax and Cyt-C ([5]; 12B compared with 9B): higher expression with 12B treatment than with 9B treatment
COc1ccc2c(c1)CC1=C2N=C2SC=CN2C1c1cc(OC)c(OC)c(OC)c1 (stereo not drawn) [Compound 9B, 8-methoxy-5-(3,4,5-trimethoxyphenyl)-5,6-dihydroindeno[1,2-d]thiazolo[3,2-a]pyrimidine]	histopathological recovery of lung tissue architectures	6.01 ± 1.08 gm	288 µg·h/mL	30800 ± 1590 ng/mL	10.6 ± 0.99 h	4 h	7.95 h	3028.82 µg.h^2/ mL	significantly decreased	restored the alteration of the lipid profile	restoring the altered levels of SOD, GSH, ProC, and TBARs	no change	no toxic effect	< 20 µg/mL	decreased	increased	LC50 ([4]; Homo sapiens, A549, A-549 cells, SRB assay, read-out: LC50 (concentration of drug causing 50% cell kill)): > 80 µg/mL
COc1cccc2c1C(=O)c1c(O)c3c(c(O)c1C2=O)C[C@@](O)(C(=O)CO)C[C@@H]3O[C@H]1C[C@H](N)[C@H](O)[C@H](C)O1 [ADR, Adriamycin, reference compound]	–	–	–	–	–	–	–	–	–	–	–	–	–	–	–	–	TGI (concentration of drug causing total inhibition of cell growth) ([4]; A-549 cells, SRB assay): <10 µg/mL; GI50 ([4]; Homo sapiens, A549, A-549 cells, SRB assay, read-out: GI50 (concentration of drug causing 50% inhibition of cell growth)): < 10 µg/mL
